ChEMBL document CHEMBL1153800, “Carbonic anhydrase inhibitors; fluorinated phenyl sulfamates show strong inhibitory activity and selectivity for the inhibition of the tumor-associated isozymes IX and XII over the cytosolic ones I and II” (Bioorg Med Chem Lett, 2009)

How the values were obtained:
[1] = target: Carbonic anhydrase 1 (Homo sapiens) (UniProt P00915)
Description: Inhibition of human CA1 by stopped flow CO2 hydration assay

[2] = target: Carbonic anhydrase 9 (Homo sapiens) (UniProt Q16790)
Description: Inhibition of tumor associated human recombinant CA9 catalytic domain by stopped flow CO2 hydration assay

[3] = target: Carbonic anhydrase 12 (Homo sapiens) (UniProt O43570)
Description: Inhibition of tumor associated human recombinant CA12 catalytic domain by stopped flow CO2 hydration assay

Homo sapiens = species: Homo sapiens; assay: Selectivity ratio of Ki for human recombinant CA9 catalytic domain to Ki for human CA2
[4] = target: Carbonic anhydrase 2 (Homo sapiens) (UniProt P00918)
Description: Inhibition of human CA2 by stopped flow CO2 hydration assay

Sequence of Carbonic anhydrase 1 (Homo sapiens) (P00915 2-261 limits assumed): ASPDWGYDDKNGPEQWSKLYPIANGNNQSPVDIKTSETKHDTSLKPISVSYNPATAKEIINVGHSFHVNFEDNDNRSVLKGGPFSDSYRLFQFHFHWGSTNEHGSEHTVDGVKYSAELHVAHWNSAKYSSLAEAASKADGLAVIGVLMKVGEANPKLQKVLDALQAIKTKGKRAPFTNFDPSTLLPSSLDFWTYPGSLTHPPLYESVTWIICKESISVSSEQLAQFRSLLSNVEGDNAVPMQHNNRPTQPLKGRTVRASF
Sequence of Carbonic anhydrase 12 (Homo sapiens) (O43570 whole entry, the tested form may be a part): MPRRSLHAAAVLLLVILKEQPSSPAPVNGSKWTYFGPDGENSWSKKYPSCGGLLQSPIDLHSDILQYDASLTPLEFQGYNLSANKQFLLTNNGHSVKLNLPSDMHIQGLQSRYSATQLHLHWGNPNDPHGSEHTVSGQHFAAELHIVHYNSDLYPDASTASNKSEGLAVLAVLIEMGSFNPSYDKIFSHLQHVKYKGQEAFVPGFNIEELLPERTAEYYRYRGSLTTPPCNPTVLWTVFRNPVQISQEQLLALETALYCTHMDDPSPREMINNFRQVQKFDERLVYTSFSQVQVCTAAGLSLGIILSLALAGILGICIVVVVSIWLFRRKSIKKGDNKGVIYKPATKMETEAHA

SMILES	Ki [1]	Ki [2]	Ki [3]	Ratio (Homo sapiens)	Ki [4]
NS(=O)(=O)Oc1ccccc1	2.1 nM	63 nM	56		
NS(=O)(=O)Oc1ccc(F)cc1	75 nM	6.5 nM	3.9	11.4	74 nM
